Five molecules from US12576099B2, “Ribose-modified cap analog and use thereof” (Beijing Youcare Kechuang Pharmaceutical Technology Co., Ltd., priority 2024, dated 2026) can be followed below.

Data set [1] concerns the target T1, T7 RNA polymerase (Escherichia phage T7, UniProt P00573). The data set can be described thus: Capping rate of mRNA transcription initiated by cap analogs (LC-MS). The data set is classed as biochemical. To be noted: for Capping rate: LC-MS of mRNA 5′ fragment. As to the method: (§1) During the experiment, the volume of materials required for the system was first calculated, and then sample addition was conducted. The system was first added with sterile enzyme-free water, followed by the sequential addition of 10× buffer, NTPs, and cap analogs, mixed well, and gently centrifuged. Nuclease inhibitors, inorganic pyrophosphatase, T7RNA polymerase, and linearized DNA templates were then added thereto. The system was mixed well, gently centrifuged, and incubated at 37° C. After 2 hours of incubation, the system was added with 1 U of DNase I and incubated at 37° C. for another 30 minutes. The mRNA precipitate was then washed with 75% ethanol, and after the ethanol was briefly evaporated to dryness, the mRNA was redissolved in sterile enzyme-free water. • (3) The transcription product was purified, and the in vitro transcription yield of mRNA was recorded. • (4) The obtained mRNA was subjected to an annealing reaction with a probe.
The annealing reaction was performed in a PCR instrument: 95° C. for 5 minutes; 65° C. for 2 minutes; 55° C. for 2 minutes; 40° C. for 2 minutes; 22° C. for 2 minutes. • (5) Magnetic bead pretreatment and probe binding: 100 μL of magnetic beads was placed on a magnetic frame for pretreatment. The magnetic bead solution was added with 120 μL of sample and incubated at room temperature for 30 minutes with slow mixing. • (6) mRNA splicing and obtaining the mRNA 5′ single-strand sequence bound to the probe
The mixture was added with 20 μL of RNase H (5 U/μL) and incubated at 37° C. for 3 hours with mixing every half hour. After incubation, the magnetic beads were washed and then added with 100 μL of 75% methanol heated to 80° C. The mixture was heated to 80° C. on a heating plate, held for 3 minutes, then placed on a magnetic frame to aspirate the supernatant, and dried at room temperature for 45 minutes to a volume of 10 μL using a centrifugal evaporator. The sample was then resuspended in 50 μL of 100 μM EDTA/1% MeOH and ready for LC-MS analysis to determine the capping of RNA in the transcription reaction. Since there is a significant difference in molecular weight between capped and uncapped bases, the capping rate of mRNA transcription initiated by different cap analogs can be determined based on the difference in molecular mass.

Data set [2] can be described thus: Characterization of lipid nanoparticles encapsulating Fluc-mRNA prepared from different cap structures. The data set is classed as physicochemical. As to conditions: for Particle size: LNP (YK-009/DSPC/cholesterol/DMG-PEG2000) with Fluc-mRNA transcribed using the named cap analog; for PDI: LNP with Fluc-mRNA transcribed using the named cap analog; for EE: encapsulation efficiency of LNP with Fluc-mRNA transcribed using the named cap analog. As to the method: Cationic lipid YK-009 (Beijing Youcare Kechuang Pharmaceutical Technology Co., Ltd.), DSPC (AVT (Shanghai) Pharmaceutical Technology Co., Ltd.), cholesterol (AVT (Shanghai) Pharmaceutical Technology Co., Ltd.), and DMG-PEG2000 were dissolved in ethanol at a molar ratio of 49:10:39.5:1.5, and the mRNA was diluted in 50 mM citrate buffer (pH=4). The ethanol lipid solution was mixed with the Fluc-mRNA aqueous solution prepared from different cap structures at a volume ratio of 1:3 using a microfluidic device at a flow rate of 10 mL/min to prepare LNPs at a weight ratio of total lipid to mRNA of approximately 15:1.
The resulting liposomes were diluted to 10-fold volume with PBS, and then ultrafiltered with a 300 KDa ultrafiltration tube to remove ethanol. The volume was then fixed to a certain volume with PBS. Finally, the LNPs were filtered through a 0.2 μm sterile filter to obtain an LNP preparation encapsulating Fluc-mRNA using YK-009/DSPC/cholesterol/DMG-PEG2000 (at a molar ratio of 49:10:39.5:1.5).
The particle size and polydispersity index (PDI) were determined by dynamic light scattering using a Malvern laser particle size analyzer. 10 μL of the liposome solution was taken, diluted to 1 mL with RNase-free deionized water, and added to a sample pool. Each sample was measured in triplicate. The measurement conditions were: a scattering angle of 90° and a temperature of 25° C. The encapsulation efficiency of LNPs was determined using the Quant-iT RiboGreen RNA Quantification Kit (Thermo Fisher Scientific, UK) according to the manufacturer's instructions.

The target in data set [3] is T1, T7 RNA polymerase. The data set can be described thus: In vitro transcription yield of mRNA using cap analogs. In kind it is biochemical. To be noted: for Yield per unit template: in vitro transcription, 1 μg DNA template, 37° C., 2 hours. As to the method: • (1) Capping synthesis using cap analogs
The plasmid was first linearized with plasmid linearizing enzyme, and then the linearized plasmid was purified. • (2) In vitro transcription and synthesis of mRNA
as §1

In the next data set the target is T2, DCP2 enzyme (Schizosaccharomyces pombe, UniProt O13828).
T2 construct: purchased New England Biolabs
T2 sequence (O13828 1-243 limits assumed): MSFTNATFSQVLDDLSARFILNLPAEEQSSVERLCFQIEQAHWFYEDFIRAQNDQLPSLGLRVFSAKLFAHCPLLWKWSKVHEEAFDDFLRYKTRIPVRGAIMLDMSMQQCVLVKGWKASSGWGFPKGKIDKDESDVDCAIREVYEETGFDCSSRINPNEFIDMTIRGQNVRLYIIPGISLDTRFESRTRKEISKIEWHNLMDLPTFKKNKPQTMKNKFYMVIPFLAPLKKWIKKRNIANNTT
T2 sequence (Q9P805 1-127 partner): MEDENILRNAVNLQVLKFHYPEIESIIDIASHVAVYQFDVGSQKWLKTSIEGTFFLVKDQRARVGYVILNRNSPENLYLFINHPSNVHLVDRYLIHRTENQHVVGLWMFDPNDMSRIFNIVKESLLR
T2 sequence (Q10108 155-180 partner limits assumed): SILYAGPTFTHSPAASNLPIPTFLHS
The data set can be described thus: Decapping enzyme stability test. The data set is classed as biochemical. To be noted: for Decapping rate (%) of DCP2 enzyme: 50 U mRNA decapping enzyme, 37° C., 45 minutes. The protocol: […] of RNA purified by polyacrylamide gel electrophoresis (PAGE) was subjected to an enzymatic reaction with 50 U of mRNA decapping enzyme (New England Biolabs) and 1×MDE buffer at 37° C. for 45 minutes. The enzymatic reactants were subjected to PAGE and stained with SYBR Green II (Lonza), followed by observation of the post-electrophoresis gel image on a Typhoon FLA 7000 (GE Healthcare) instrument. The electrophoresis band intensity ratio of RNA capping to RNA decapping was counted using ImageQuant (GE Healthcare) software, and the decapping rate of the decapping enzyme was calculated.

The test system of another data set is HEK293T cells. The data set can be described thus: Translation efficiency of different capped luciferase mRNAs. The data set is classed as cell-based. To be noted: for Relative fluorescence intensity: HEK293T, 0.5 μg mRNA per well, 24 hours, proportional to translation efficiency; for Multiple of m6A (relative fluorescence intensity): relative to m6A. As to the method:
• (1) HEK293T cells were cultured in DMEM medium containing 10% FBS and penicillin/streptomycin at 37° C. with 5% CO2. • (2)Cells in the culture dish were digested and counted, then spread in a 96-well plate at 10,000 cells per well, and cultured overnight until the cells adhered to the wall. • (3) When the cell density reached approximately 80%, transfection was performed by adding 0.5 μg of mRNA sample and Lipofectamine MessengerMAX Transfection Reagent (Invitrogen) per well according to the manufacturer's instructions. • (4) After the transfected cells were cultured at 37° C. with 5% CO2 for 24 hours, the growth medium was removed from the cells to be tested, and the cells were rinsed with PBS. After centrifugation to remove PBS, 50 μL of 1× lysis buffer was added. The cells and all liquid were transferred to a microcentrifuge tube and centrifuged. • (5) 20 μL of sample was taken and added to 100 μL of Dual-Lumi™ II Luciferase Assay Reagent pre-equilibrated to room temperature, and mixed appropriately. • (6) The mixture was incubated at room temperature (approximately 25° C.) for 5 minutes to stabilize the luminescence signal. Chemiluminescence was detected using a multifunctional microplate reader with a function for detecting chemiluminescence, and the data were recorded.
The relative fluorescence intensity is proportional to the translation efficiency of mRNA.

T1 sequence (P00573 whole entry, the tested form may be a part): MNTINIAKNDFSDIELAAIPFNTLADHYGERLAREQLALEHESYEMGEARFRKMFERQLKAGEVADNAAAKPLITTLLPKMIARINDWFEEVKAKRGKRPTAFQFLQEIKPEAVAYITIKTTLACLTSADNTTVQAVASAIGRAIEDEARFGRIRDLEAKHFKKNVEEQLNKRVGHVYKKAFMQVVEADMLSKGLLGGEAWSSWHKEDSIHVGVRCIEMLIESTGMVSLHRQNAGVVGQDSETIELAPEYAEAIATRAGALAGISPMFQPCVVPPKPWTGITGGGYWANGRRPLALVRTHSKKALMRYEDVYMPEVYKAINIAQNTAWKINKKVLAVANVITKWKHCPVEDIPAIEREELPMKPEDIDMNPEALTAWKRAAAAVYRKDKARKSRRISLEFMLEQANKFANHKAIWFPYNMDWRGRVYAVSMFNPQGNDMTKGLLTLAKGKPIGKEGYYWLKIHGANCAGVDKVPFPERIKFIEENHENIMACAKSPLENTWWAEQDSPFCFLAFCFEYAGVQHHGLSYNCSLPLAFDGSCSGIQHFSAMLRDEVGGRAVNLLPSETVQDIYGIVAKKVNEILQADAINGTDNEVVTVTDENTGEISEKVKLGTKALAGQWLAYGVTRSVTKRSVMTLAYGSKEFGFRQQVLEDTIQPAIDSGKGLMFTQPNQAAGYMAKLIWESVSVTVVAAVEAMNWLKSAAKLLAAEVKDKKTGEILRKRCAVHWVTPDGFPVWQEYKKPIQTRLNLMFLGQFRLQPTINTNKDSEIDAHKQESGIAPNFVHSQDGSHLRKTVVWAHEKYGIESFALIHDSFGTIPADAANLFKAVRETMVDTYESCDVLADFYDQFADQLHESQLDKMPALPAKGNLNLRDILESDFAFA

Turning to `CO[C@@H]1[C@H](OP(=O)(O)OC[C@H]2O[C@@H](n3cnc4c(=O)[nH]c(N)nc43)[C@H](O)[C@@H]2O)[C@@H](COP(=O)(O)OP(=O)(O)OP(=O)(O)OC[C@H]2OC([n+]3cn(C)c4c(=O)[nH]c(N)nc43)[C@H](NC(C)=O)[C@@H](O)[C@@H]2O)O[C@H]1n1cnc2c(N)ncnc21` (stereo partly drawn) [YK-CAP-102], at T7 RNA polymerase [1], the Capping rate turned out to be 30.2% and the “Increase relative to 5227 (capping rate)” value is −58.0%. In data set [2], the Particle size amounted to 73.22 nm, the PDI is listed as 0.055 and the EE is recorded as 95.3%. Besides, at T7 RNA polymerase [3], the “Yield per unit template” value came out at 44.1 µg and the “Increase relative to 5227 (in vitro transcription yield)” value is recorded as −67.1%. Further, on DCP2 enzyme, the “Decapping rate (%) of DCP2 enzyme” value was 41.2% and the “Decrease relative to N-7113 (decapping rate)” value came out at 2.6%. In the data set on HEK293T cells, the Relative fluorescence intensity is listed as 0.34 and the “Multiple of m6A (relative fluorescence intensity)” value was 0.9.

In the case of `CO[C@@H]1[C@H](OP(=O)(O)OC[C@H]2O[C@@H](n3cnc4c(=O)[nH]c(N)nc43)[C@H](O)[C@@H]2O)[C@@H](COP(=O)(O)OP(=O)(O)OP(=O)(O)OC[C@H]2O[C@@H](C[n+]3cn(C)c4c(=O)[nH]c(N)nc43)[C@H](O)[C@@H]2O)O[C@H]1n1cnc2c(N)ncnc21` [YK-CAP-103], at T7 RNA polymerase [1], the Capping rate is 71.1% and the “Increase relative to 5227 (capping rate)” value was −1.1%. In data set [2], this molecule came in with a Particle size of 67.24 nm, a PDI of 0.053 and an EE of 94.7%. Further, on T7 RNA polymerase [3], the “Yield per unit template” value was 88.0 µg and the “Increase relative to 5227 (in vitro transcription yield)” value was −34.4%. In addition, at DCP2 enzyme, the “Decapping rate (%) of DCP2 enzyme” value is 36.5% and the “Decrease relative to N-7113 (decapping rate)” value was 7.3%. Moreover, in the data set on HEK293T cells, the Relative fluorescence intensity is 0.77 and the “Multiple of m6A (relative fluorescence intensity)” value is 2.0.

As for `CO[C@@H]1[C@H](OP(=O)(O)OC[C@H]2O[C@@H](n3cnc4c(=O)[nH]c(N)nc43)[C@H](O)[C@@H]2O)[C@@H](COP(=O)(O)OP(=O)(O)OP(=O)(O)OC[C@H]2O[C@@H]([n+]3cn(C)c4c(=O)[nH]c(N)nc43)[C@H](O)[C@]2(C)C#N)O[C@H]1n1cnc2c(N)ncnc21` [YK-CAP-105], on T7 RNA polymerase [1], the Capping rate came out at 69.3% and the “Increase relative to 5227 (capping rate)” value was −3.6%. Further, in data set [2], the Particle size was 77.22 nm, the PDI was 0.063 and the EE came out at 95.7%. In addition, at T7 RNA polymerase [3], the “Yield per unit template” value came to 82.3 µg and the “Increase relative to 5227 (in vitro transcription yield)” value is −38.7%. On DCP2 enzyme, the “Decapping rate (%) of DCP2 enzyme” value was determined as 33.9% and the “Decrease relative to N-7113 (decapping rate)” value is recorded as 9.9%. In addition, in the data set with HEK293T cells, the Relative fluorescence intensity was 0.72 and the “Multiple of m6A (relative fluorescence intensity)” value is recorded as 1.9.

With `COC1[C@H](n2cnc3c(N)ncnc32)O[C@H](COP(=O)(O)OP(=O)(O)OP(=O)(O)OC[C@@]23COC([C@H]([n+]4cn(C)c5c(=O)[nH]c(N)nc54)O2)[C@H]3O)[C@H]1OP(=O)(O)OCC1OC(n2cnc3c(=O)[nH]c(N)nc32)C(O)C1O` (stereo partly drawn) [Compound 14, reference compound], at T7 RNA polymerase [1], the Capping rate is on record as 78.3% and the “Increase relative to 5227 (capping rate)” value is 8.9%. In data set [2], this molecule displayed a Particle size of 79.35 nm, a PDI of 0.073 and an EE of 94.2%. Moreover, at T7 RNA polymerase [3], the “Yield per unit template” value was determined as 123.2 µg and the “Increase relative to 5227 (in vitro transcription yield)” value is reported as −8.2%. At DCP2 enzyme, the “Decapping rate (%) of DCP2 enzyme” value was determined as 26.8% and the “Decrease relative to N-7113 (decapping rate)” value is reported as 17.0%. Further, the “Multiple of m6A (relative fluorescence intensity)” value with HEK293T cells is recorded as 2.9.

Take `CO[C@@H]1[C@H](OP(=O)(O)OC[C@H]2O[C@@H](n3cnc4c(=O)[nH]c(N)nc43)[C@H](O)[C@@H]2O)[C@@H](COP(=O)(O)OP(=O)(O)OP(=O)(O)OC[C@H]2O[C@@H]([n+]3cn(C)c4c(=O)[nH]c(N)nc43)[C@H](O)[C@]2(F)CN(C)C)O[C@H]1n1cnc2c(N)ncnc21` [YK-CAP-104]: at T7 RNA polymerase [1], the Capping rate is on record as 77.2% and the “Increase relative to 5227 (capping rate)” value is reported as 7.4%. In data set [2], this molecule showed a Particle size of 69.24 nm, a PDI of 0.047 and an EE of 95.7%. Besides, at T7 RNA polymerase [3], the “Yield per unit template” value was 73.2 µg and the “Increase relative to 5227 (in vitro transcription yield)” value is given as −45.5%. At DCP2 enzyme, the “Decapping rate (%) of DCP2 enzyme” value was found to be 46.1% and the “Decrease relative to N-7113 (decapping rate)” value is −2.3%. Besides, in the data set with HEK293T cells, the Relative fluorescence intensity came out at 0.81 and the “Multiple of m6A (relative fluorescence intensity)” value worked out at 2.1.
